The text below walks through data of patent US7582471B2, “Biosensor for the detection of protein kinase A, and kit comprising the same” (Korea Institute of Science and Technology, priority 2006, dated 2009).

Experiment [1] has as its target T1, PKA (Homo sapiens, UniProt P17612). The following applies: 132 nM PKA, even at the highest ATP concentration applied.
Method: The effect of ATP on the PKA-PKI binding was also evaluated using an SPR analyzer, Biacore 3000 biosensor system (Biacore, U.S.A.). The surface of a CM5 sensor chip (Biacore, Applied Biosystems, U.S.A.) was activated with N-ethyl-N′-(3-dimethylaminopropyl)carbodiimide (EDC) and N-hydroxysuccinimide (NHS), and 50 μg/mL streptavidin was applied thereto, to immobilize on the surface of sensor via an amine-coupling method. […] The mixture solutions of 132 nM PKA and varying concentrations of ATP were applied at the rate of 30 μM/min for 100 seconds, and the buffer solution was then applied for 200 seconds, to obtain sensorgrams.
Experiment [2] addresses T1, PKA. Particulars: read-out: affinity for PKA; cited from earlier work.

Where no end group is shown, it is not given here. The star is where a group is joined. Biotin = O=C1N[C@H]2[C@H](CS[C@H]2CCCCC(=O)*)N1

As to Biotin-LRRAALG [biotin-Ala-kemptide], the “binding of PKA to immobilized peptide (SPR)” value at PKA [1] is reported as “not observed”. At PKA [2], the Kd is 10 µM.
